Measured values taken from US8609666B2, “2-morpholino-pyrido[3,2-D]pyrimidines” (Merck Serono SA, priority 2009, dated 2013).

Test system: Human recombinant GST-PI3K
Assay: PI3K induced-lipid phosphorylation scintillation proximity assay (neomycin-coated SPA beads)
Type: biochemical
Details: amount necessary to achieve 50% inhibition of PI3K; 120 min at room temperature
Text: The efficacy of compounds of the invention in inhibiting the PI3K induced-lipid phosphorylation may be tested in the following binding assay. The assay combines the scintillation proximity assay technology (SPA, Amersham) with the capacity of neomycin (a polycationic antibiotic) to bind phospholipids with high affinity and specificity. The Scintillation Proximity Assay is based on the properties of weakly emitting isotopes (such as ^3H, ^125I, ^33P). Coating SPA beads with neomycin allows the detection of phosphorylated lipid substrates after incubation with recombinant PI3K and radioactive ATP in the same well, by capturing the radioactive phospholipids to the SPA beads through their specific binding to neomycin. To a 96 wells MTP containing 10 μl of the test compound of Formula (I) (solubilized in 10% DMSO; to yield a concentration of 100, 25, 5.0, 1.25, 0.312, 0.078, 0.0195, 0.00488, 0.00122 and 0.0003 μM of the test compound), the following assay components are added: 1) 10 μL of lipid micelles 2) […] of Kinase buffer ([^33P]γATP162 μM/300 nCi, MgCl2 2.5 mM, DTT 2.5 mM, Na3VO4 25 μM in Hepes 40 mM, pH 7.4) and 3) 10 μL (100 ng) of Human recombinant GST-PI3K (in Hepes 40 mM, pH 7.4, ethylenglycol 4%). After incubation at room temperature for 120 minutes, with gentle agitation, the reaction is stopped by addition of 200 μL of a solution containing 250 μg of neomycin-coated PVT SPA beads, ATP 60 mM and EDTA 6.2 mM in PBS. The assay is further incubated at room temperature for 60 minutes with gentle agitation to allow binding of phospholipids to neomycin-SPA beads. After precipitation of the neomycin-coated PVT SPA beads for 5 minutes at 1500×g, radioactive PtdIns(3)P is quantified by scintillation counting in a Wallac MicroBeta™ plate counter. The values indicated in Table I below refer to the IC50 (μM) with respect to PI3K, i.e. the amount necessary to achieve 50% inhibition of said target. Said values show a considerable inhibitory potency of pyridopyrimidine compounds with regard to PI3K.

Compound	IC50
COc1cccc(-c2nc(N3CCOCC3)nc3c(Cl)cc(C(=O)O)nc23)c1 [Example 1, 8-Chloro-4-(3-methoxyphenyl)-2-morpholin-4-ylpyrido[3,2-d]pyrimidine-6-carboxylic acid]	1080 nM
COc1cccc(-c2nc(N3CCOCC3)nc3ccc(C(=O)O)nc23)c1 [Example 2, 4-(3-Methoxyphenyl)-2-morpholin-4-ylpyrido[3,2-d]pyrimidine-6-carboxylic acid]	4490 nM
COCCN(C)c1cc(C(=O)O)nc2c(-c3ccc(O)cc3)nc(N3CCOCC3)nc12 [Example 3, 4-(4-hydroxy-phenyl)-8-[(2-methoxy-ethyl)-methyl-amino]-2-morpholin-4-yl-pyrido[3,2-d]pyrimidine-6-carboxylic acid]	290 nM
COCCNc1cc(C(=O)O)nc2c(-c3ccc(O)cc3)nc(N3CCOCC3)nc12 [Example 5, 4-(4-Hydroxy-phenyl)-8-(2-methoxy-ethylamino)-2-morpholin-4-yl-pyrido[3,2-d]pyrimidine-6-carboxylic acid]	504 nM
COCCOc1cc(C(=O)O)nc2c(-c3ccc(O)cc3)nc(N3CCOCC3)nc12 [Example 6, 4-(4-Hydroxy-phenyl)-8-(2-methoxy-ethoxy)-2-morpholin-4-yl-pyrido[3,2-d]pyrimidine-6-carboxylic acid]	2520 nM
O=C(O)c1cc(NCCO)c2nc(N3CCOCC3)nc(-c3ccc(O)cc3)c2n1 [Example 7, 8-(2-Hydroxy-ethylamino)-4-(4-hydroxy-phenyl)-2-morpholin-4-yl-pyrido[3,2-d]pyrimidine-6-carboxylic acid]	732 nM
O=C(O)c1ccc2nc(N3CCOCC3)nc(-c3ccc(O)cc3)c2n1 [Example 8, 4-(4-Hydroxy-phenyl)-2-morpholin-4-yl-pyrido[3,2-d]pyrimidine-6-carboxylic acid]	855 nM
COCCOc1cc(C(=O)O)nc2c(-c3cccc(O)c3)nc(N3CCOCC3)nc12 [Example 11, 4-(3-Hydroxy-phenyl)-8-(2-methoxy-ethoxy)-2-morpholin-4-yl-pyrido[3,2-d]pyrimidine-6-carboxylic acid]	255 nM
O=C(O)c1cc(NCCO)c2nc(N3CCOCC3)nc(-c3cccc(O)c3)c2n1 [Example 12, 8-(2-Hydroxy-ethylamino)-4-(3-hydroxy-phenyl)-2-morpholin-4-yl-pyrido[3,2-d]pyrimidine-6-carboxylic acid]	75 nM
COc1ccccc1-c1cc(C(=O)O)nc2c(-c3cccc(O)c3)nc(N3CCOCC3)nc12 [Example 13, 4-(3-hydroxyphenyl)-8-(2-methoxyphenyl)-2-morpholin-4-ylpyrido[3,2-d]pyrimidine-6-carboxylic acid]	24 nM
COCCN(C)c1cc(C(=O)O)nc2c(-c3cc(O)cc(F)c3)nc(N3CCOCC3)nc12 [Example 14, 4-(3-Fluoro-5-hydroxy-phenyl)-8-[(2-methoxy-ethyl)-methyl-amino]-2-morpholin-4-yl-pyrido[3,2-d]pyrimidine-6-carboxylic acid]	19 nM
COCCOc1cc(C(=O)O)nc2c(-c3cc(O)cc(F)c3)nc(N3CCOCC3)nc12 [Example 15, 4-(3-Fluoro-5-hydroxy-phenyl)-8-(2-methoxy-ethoxy)-2-morpholin-4-yl-pyrido[3,2-d]pyrimidine-6-carboxylic acid]	93 nM
O=C(O)c1cc(NCCO)c2nc(N3CCOCC3)nc(-c3cc(O)cc(F)c3)c2n1 [Example 16, 4-(3-Fluoro-5-hydroxy-phenyl)-8-(2-hydroxy-ethylamino)-2-morpholin-4-yl-pyrido[3,2-d]pyrimidine-6-carboxylic acid]	64 nM
CNc1cc(C(=O)O)nc2c(-c3cccc4[nH]ccc34)nc(N3CCOCC3)nc12 [Example 18, 4-(1 H-Indol-4-yl)-8-methylamino-2-morpholin-4-yl-pyrido[3,2-d]pyrimidine-6-carboxylic acid]	780 nM
COCCNc1cc(C(=O)O)nc2c(-c3cccc4[nH]ccc34)nc(N3CCOCC3)nc12 [Example 19, 4-(1H-Indol-4-yl)-8-(2-methoxy-ethylamino)-2-morpholin-4-yl-pyrido[3,2-d]pyrimidine-6-carboxylic acid]	128 nM
CN(CCO)c1cc(C(=O)O)nc2c(-c3cccc4[nH]ccc34)nc(N3CCOCC3)nc12 [Example 20, 8-[(2-Hydroxy-ethyl)-methyl-amino]-4-(1H-indol-4-yl)-2-morpholin-4-yl-pyrido[3,2-d]pyrimidine-6-carboxylic acid]	77 nM
COCCN(C)c1cc(C(=O)O)nc2c(-c3ccc4[nH]ccc4c3)nc(N3CCOCC3)nc12 [Example 21, 4-(1H-Indol-5-yl)-8-[(2-methoxy-ethyl)-methyl-amino]-2-morpholin-4-yl-pyrido[3,2-d]pyrimidine-6-carboxylic acid]	169 nM
COCCNc1cc(C(=O)O)nc2c(-c3cccc(COC)c3)nc(N3CCOCC3)nc12 [Example 26, 8-(2-Methoxy-ethylamino)-4-(3-methoxymethyl-phenyl)-2-morpholin-4-yl-pyrido[3,2-d]pyrimidine-6-carboxylic acid]	1830 nM

Next, values leading:

IC50	Compound
350 nM	CN(C)c1cc(C(=O)O)nc2c(-c3ccc(O)cc3)nc(N3CCOCC3)nc12 [Example 4, 8-Dimethylamino-4-(4-hydroxy-phenyl)-2-morpholin-4-yl-pyrido[3,2-d]pyrimidine-6-carboxylic acid]
108 nM	O=C(O)c1cc(Cl)c2nc(N3CCOCC3)nc(-c3cccc(O)c3)c2n1 [Example 9, 8-Chloro-4-(3-hydroxyphenyl)-2-morpholin-4-ylpyrido[3,2-d]pyrimidine-6-carboxylic acid]
28 nM	COCCN(C)c1cc(C(=O)O)nc2c(-c3cccc(O)c3)nc(N3CCOCC3)nc12 [Example 10, 4-(3-Hydroxy-phenyl)-8-[(2-methoxy-ethyl)-methyl-amino]-2-morpholin-4-yl-pyrido[3,2-d]pyrimidine-6-carboxylic acid]
132 nM	CN(C)c1cc(C(=O)O)nc2c(-c3cccc4[nH]ccc34)nc(N3CCOCC3)nc12 [Example 17, 8-Dimethylamino-4-(1H-indol-4-yl)-2-morpholin-4-yl-pyrido[3,2-d]pyrimidine-6-carboxylic acid]
546 nM	COCCN(C)c1cc(C(=O)O)nc2c(-c3ccc(CO)cc3)nc(N3CCOCC3)nc12 [Example 22, 4-(4-Hydroxymethyl-phenyl)-8-[(2-methoxy-ethyl)-methyl-amino]-2-morpholin-4-yl-pyrido[3,2-d]pyrimidine-6-carboxylic acid]
34 nM	CN(C)c1cc(C(=O)O)nc2c(-c3cccc(CO)c3)nc(N3CCOCC3)nc12 [Example 23, 8-Dimethylamino-4-(3-hydroxymethyl-phenyl)-2-morpholin-4-yl-pyrido[3,2-d]pyrimidine-6-carboxylic acid]
74 nM	CN(CCO)c1cc(C(=O)O)nc2c(-c3cccc(CO)c3)nc(N3CCOCC3)nc12 [Example 24, 8-[(2-Hydroxy-ethyl)-methyl-amino]-4-(3-hydroxymethyl-phenyl)-2-morpholin-4-yl-pyrido[3,2-d]pyrimidine-6-carboxylic acid]
5050 nM	COCc1cccc(-c2nc(N3CCOCC3)nc3c(N(C)C)cc(C(=O)O)nc23)c1 [Example 25, 8-Dimethylamino-4-(3-methoxymethyl-phenyl)-2-morpholin-4-yl-pyrido[3,2-d]pyrimidine-6-carboxylic acid]
